Tested on: CD4+CD25− T cells (Teff)
Assay: CFSE-based polyclonal suppression assay (aTreg:Teff co-culture 1:4, anti-CD3/anti-CD28 beads)
Assay type: cell-based, human
Conditions: for percent inhibition (Treg-mediated suppression of Teff proliferation): presence vs absence of STAT3 inhibitor, 200 ng/ml for one hour
Protocol: The level of Teff suppression was measured using an in vitro assay in which the CD4^+CD25^− T cells of patients with RRMS were co-cultured with in vitro generated Treg from healthy subjects at a Treg to Teff ratio of 1:4 in the presence of anti-CD3/anti-CD28 coated beads and where proliferation is measured using CFSE.
FIGS. 5A, 5B, and 5C relate to a gating strategy for calculation of percent inhibition in a suppression assay and a cytometric analysis of phosphorylated STAT3 and IL-6Rα surface expression. Referring to FIG. 5A, FACS analysis was performed on day 4 by gating on live cells and excluding the CFSE low population (unstained Treg) to determine the percent of the responder cells that have diluted CFSE. The percent inhibition was determined by comparing the percent of proliferating Teff cells cultured alone to the percent of proliferating Teff cells in co-culture with in vitro generated Treg at a ratio 1:4 (Treg:responder cells).
IL-6 mediated Teff resistance can be reversed through the use of a STAT3 inhibitor (Goodman, W. A., et al., J. Immunol. 186(6), 3336-3345 (2011)). […] Suppression assays were performed in the presence of the STAT3 inhibitor using the same source of control Treg for RRMS and control Teff cells. In FIG. 2D, the percent inhibition for controls (n=3) and RRMS (n=3) subjects in the presence or absence of a STAT3 inhibitor, STATTIC V, was compared using a paired Student t-test.
To determine whether IL-6R mediated signaling could alter suppression in the assay system, Teff were cultured from healthy subjects in the presence or absence of IL-6 in the in vitro co-culture system and assessed percent inhibition on day 4. […] Referring to FIG. 11, CFSE-labeled CD4^+CD25^− T cells were cultured at a ratio of 1:4 (control aTreg:control Teff) either in the absence or presence of 50 ng/ml IL-6 and activated with anti-CD3/anti-CD28 coated beads. FACS analysis was performed to determine percent inhibition on day 4 and data is represented by using a paired analysis (Correlation coefficient (r) 0.8934).
CD4^+CD25^− responder cells were isolated as described above via negative selection using Miltenyi microbeads. Allogeneic CD4^+CD25^− T cells were carboxyfluorescein succinimidyl ester (CFSE)-labelled and cultured at a ratio of 1:4 with aTregs and Dynabeads® (M-450 CD3/CD28 T, Dynal Biotech A.S.A./Life Technologies Corporation, Grand Island, N.Y.) at a ratio of 1:5 (beads:responder cells) as described previously (Schneider, A., and Buckner, J. H., Methods Mol. Biol. 707, 233-241 (2011)). […] Data was acquired using CellQuest™ Pro software (BD Bioscience) and analyzed by FlowJo (Tree Star).

| Molecule | suppression by Treg (percent inhibition) (control aTreg:control Teff 1:4, absence vs presence of 50 ng/ml IL-6, day 4, p=0.02, FIG. 11) | proliferation of Teff (cultures with Teff alone, healthy subjects, absence vs presence of 50 ng/ml IL-6) | percent inhibition (Treg-mediated suppression of Teff proliferation) (RRMS subjects' Teff (n=3), day 4, p<0.01, FIG. 2D) | percent inhibition (Treg-mediated suppression of Teff proliferation) (control subjects' Teff (n=3), day 4, FIG. 2D) |
| --- | --- | --- | --- | --- |
| IL-6: recombinant human IL-6 from BD Pharmingen, pro-inflammatory cytokine | significantly decreased | unaffected |  |  |
| O=[N+]([O-])c1ccc2c(c1)S(=O)(=O)C=C2 [STATTIC V] |  |  | more marked increase in suppression | enhanced suppression |

Source: patent US20150362508A1, “EFFECTOR T CELL RSISTANCE” (BENAROYA RESEARCH INSTITUTE AT VIRGINIA MASON, priority 2013, published 2015)
